This note sets out measurements from patent publication US8440652B2, “MST1 kinase inhibitors and methods of their use” (Lexicon Pharmaceuticals, Inc., priority 2011, dated 2013).

SMILES strings stand for the structures. Like-named read-outs stand apart in the source and are kept apart here.

This experiment deals with T1, MST1 (Homo sapiens, UniProt Q13043).
T1 sequence (Q13043 1-487): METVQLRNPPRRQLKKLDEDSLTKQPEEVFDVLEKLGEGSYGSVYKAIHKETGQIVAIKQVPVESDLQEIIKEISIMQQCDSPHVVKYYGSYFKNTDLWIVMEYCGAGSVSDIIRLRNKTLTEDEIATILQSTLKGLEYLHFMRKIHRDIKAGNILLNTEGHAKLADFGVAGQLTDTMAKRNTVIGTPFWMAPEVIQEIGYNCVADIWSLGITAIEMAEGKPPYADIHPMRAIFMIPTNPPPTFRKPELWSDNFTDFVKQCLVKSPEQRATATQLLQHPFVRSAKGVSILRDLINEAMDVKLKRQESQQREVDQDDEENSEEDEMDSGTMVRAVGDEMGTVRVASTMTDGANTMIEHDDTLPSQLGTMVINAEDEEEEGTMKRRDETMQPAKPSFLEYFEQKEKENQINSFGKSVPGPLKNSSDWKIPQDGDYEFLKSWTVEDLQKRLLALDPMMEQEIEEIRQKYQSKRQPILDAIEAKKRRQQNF
Put plainly: In vitro measurement of MST1 inhibition (Z′-Lyte kinase assay). The class given is biochemical.

[1] abbreviates: 1 μM ATP, read-out: IC50 (μM) 1 μM ATP.
Where [2] appears, read: 50 μM ATP, read-out: IC50 (μM) 50 μM ATP.

For `CN(C1CC1)S(=O)(=O)c1ccc(-c2cnc(N)c(-c3cc4c(cn3)C(=O)NCC4)n2)cc1` [4-(5-amino-6-(8-oxo-5,6,7,8-tetrahydro-2,7-naphthyridin-3-yl)pyrazin-2-yl)-N-cyclopropyl-N-methylbenzenesulfonamide], the half-maximal inhibitory concentration (IC50) was less than 0.01 µM under setting [1] and less than 0.01 µM under setting [2].

As to `CC1(C#N)CCc2cc(-c3cnc(N)c(-c4ccc5c(c4)CCNC5=O)n3)ccc21` (stereo not shown) [5-(5-amino-6-(1-oxo-1,2,3,4-tetrahydroisoquinolin-6-yl)pyrazin-2-yl)-1-methyl-2,3-dihydro-1H-indene-1-carbonitrile], the IC50 runs as follows: under setting [1], less than 0.05 µM; under setting [2], less than 0.01 µM.

As to `CN1Cc2cc(-c3nc(-c4ccc(S(=O)(=O)N(C)C5CC5)cc4)cnc3N)ccc2C(=O)N1` [4-(5-amino-6-(3-methyl-1-oxo-1,2,3,4-tetrahydrophthalazin-6-yl)pyrazin-2-yl)-N-cyclopropyl-N-methylbenzenesulfonamide], the IC50 is less than 0.05 µM under setting [1] and less than 0.01 µM under setting [2].

In the case of `CNC(=O)N1CCc2cc(-c3nc(-c4ccc(S(=O)(=O)N(C)C5CC5)cc4)cnc3N)ccc21` [5-(3-amino-6-(4-(N-cyclopropyl-N-methylsulfamoyl)phenyl)pyrazin-2-yl)-N-methylindoline-1-carboxamide], the 50% inhibitory concentration (IC50) was less than 0.05 µM under setting [1] and less than 0.01 µM under setting [2].

As for `CN(C)c1nc(-c2cnc(N)c(-c3ccc4c(c3)CCNC4=O)c2)cs1` [6-(2-amino-5-(2-(dimethylamino)thiazol-4-yl)pyridin-3-yl)-3,4-dihydroisoquinolin-1(2H)-one], the IC50 under setting [2] was less than 0.05 µM.

`COC[C@H]1C[C@@H]1N(C)S(=O)(=O)c1ccc(-c2cnc(N)c(-c3ccc4c(c3)CCNC4=O)n2)nc1` [6-(5-amino-6-(1-oxo-1,2,3,4-tetrahydroisoquinolin-6-yl)pyrazin-2-yl)-N-((1S,2S)-2-(methoxymethyl)cyclopropyl)-N-methylpyridine-3-sulfonamide]: the IC50 by setting is: under setting [1], less than 0.15 µM; under setting [2], less than 0.05 µM.

Regarding `C=CCN(C)S(=O)(=O)c1ccc(-c2cnc(N)c(-c3ccc4c(c3)CCNC4=O)c2)cc1` [N-allyl-4-(6-amino-5-(1-oxo-1,2,3,4-tetrahydroisoquinolin-6-yl)pyridin-3-yl)-N-methylbenzenesulfonamide], the IC50 reads like this: under setting [1], less than 0.01 µM; under setting [2], less than 0.01 µM.

Regarding `CN(C1CC1)S(=O)(=O)c1ccc(-c2cc(-c3ccc4c(c3)CCNC4=O)c(N)nn2)cc1` [4-(6-amino-5-(1-oxo-1,2,3,4-tetrahydroisoquinolin-6-yl)pyridazin-3-yl)-N-cyclopropyl-N-methylbenzenesulfonamide], the IC50 was less than 0.05 µM under setting [1] and less than 0.01 µM under setting [2].

Take `CC(=O)N1CC(C)(C)c2cc(-c3nc(-c4ccc(S(=O)(=O)N(C)C5CC5)cc4)cnc3N)ccc21` [4-(6-(1-acetyl-3,3-dimethylindolin-5-yl)-5-aminopyrazin-2-yl)-N-cyclopropyl-N-methylbenzenesulfonamide]: the IC50 under setting [1] is less than 0.05 µM and the IC50 under setting [2] was less than 0.01 µM.

With `Cc1cc(-c2cnc(N)c(-c3ccc4c(c3)CCNC4=O)c2)ncc1S(=O)(=O)NC1CC1` [6′-amino-N-cyclopropyl-4-methyl-5′-(1-oxo-1,2,3,4-tetrahydroisoquinolin-6-yl)-[2,3′-bipyridine]-5-sulfonamide], the half-inhibitory concentration (IC50) reads like this: under setting [1], less than 0.01 µM; under setting [2], less than 0.01 µM.

Turning to `CN(C1CC1)S(=O)(=O)c1ccc(-c2cnc(N)c(-c3ccc4c(c3)CCNC4=O)n2)nc1` [6-(5-amino-6-(1-oxo-1,2,3,4-tetrahydroisoquinolin-6-yl)pyrazin-2-yl)-N-cyclopropyl-N-methylpyridine-3-sulfonamide], the IC50 by setting is: under setting [1], less than 0.01 µM; under setting [2], less than 0.01 µM.

Regarding `CCN(C1CC1)S(=O)(=O)c1ccc(-c2cnc(N)c(-c3ccc4c(c3)CCNC4=O)n2)cc1` [4-(5-amino-6-(1-oxo-1,2,3,4-tetrahydroisoquinolin-6-yl)pyrazin-2-yl)-N-cyclopropyl-N-ethylbenzenesulfonamide], the IC50 by setting is: under setting [1], less than 0.05 µM; under setting [2], less than 0.01 µM.

Take `CCCC(C)NC(=O)c1nc(-c2cc(OC)c(OC)c(OC)c2)cnc1N` (stereo not shown) [3-amino-N-(pentan-2-yl)-6-(3,4,5-trimethoxyphenyl)pyrazine-2-carboxamide]: the IC50 under setting [2] is less than 0.15 µM.

For `CC(C)(C#N)c1ccc(-c2cnc(N)c(-c3ccc4c(c3)CCNC4=O)c2)cn1` [2-(6′-amino-5′-(1-oxo-1,2,3,4-tetrahydroisoquinolin-6-yl)-[3,3′-bipyridin]-6-yl)-2-methylpropanenitrile], the IC50 under setting [1] is less than 0.05 µM and the half-maximal inhibitory concentration (IC50) under setting [2] is less than 0.05 µM.

For `CCC(=O)c1ccc(-c2cnc(N)c(-c3ccc4c(c3)CCNC4=O)n2)cc1` [6-(3-amino-6-(4-propionylphenyl)pyrazin-2-yl)-3,4-dihydroisoquinolin-1(2H)-one], the half-inhibitory concentration (IC50) by setting is: under setting [1], less than 0.05 µM; under setting [2], less than 0.01 µM.

In the case of `CCN(C)S(=O)(=O)c1ccc(-c2cnc(N)c(-c3ccc4c(c3)CCNC4=O)c2)cc1` [4-(6-amino-5-(1-oxo-1,2,3,4-tetrahydroisoquinolin-6-yl)pyridin-3-yl)-N-ethyl-N-methylbenzenesulfonamide], the IC50 was less than 0.01 µM under setting [1] and less than 0.01 µM under setting [2].

`Nc1ncc(-c2ccc(S(=O)(=O)NC3CC3)cn2)cc1-c1ccc2c(c1)CCNC2=O` [6′-amino-N-cyclopropyl-5′-(1-oxo-1,2,3,4-tetrahydroisoquinolin-6-yl)-[2,3′-bipyridine]-5-sulfonamide]: the IC50 under setting [1] was less than 0.01 µM and the IC50 under setting [2] is less than 0.01 µM.

On to `CN(C1CC1)S(=O)(=O)c1ccc(-c2cnc(N)c(-c3ccc4c(c3)C(C)(C)NC4=O)c2)cc1` [4-(6-amino-5-(3,3-dimethyl-1-oxoisoindolin-5-yl)pyridin-3-yl)-N-cyclopropyl-N-methylbenzenesulfonamide], for which the IC50 reads like this: under setting [1], less than 0.01 µM; under setting [2], less than 0.01 µM.

As for `CN1CCc2cc(-c3nc(-c4ccc(S(=O)(=O)N(C)C5CC5)cc4)cnc3N)ccc2C1=O` [4-(5-amino-6-(2-methyl-1-oxo-1,2,3,4-tetrahydroisoquinolin-6-yl)pyrazin-2-yl)-N-cyclopropyl-N-methylbenzenesulfonamide], the IC50 is less than 0.15 µM under setting [1] and less than 0.05 µM under setting [2].

With `Cc1cc(-c2cnc(N)c(-c3ccc4c(c3)OCCNC4=O)n2)ccc1S(=O)(=O)NC1CC1` [4-(5-amino-6-(5-oxo-2,3,4,5-tetrahydrobenzo[f][1,4]oxazepin-8-yl)pyrazin-2-yl)-N-cyclopropyl-2-methylbenzenesulfonamide], the IC50 runs as follows: under setting [1], less than 0.05 µM; under setting [2], less than 0.01 µM.

Regarding `CN(C1CC1)S(=O)(=O)c1ccc(-c2cnc(N)c(-c3ccc4c(c3)CCN(CCC#N)C4=O)c2)cc1` [4-(6-amino-5-(2-(2-cyanoethyl)-1-oxo-1,2,3,4-tetrahydroisoquinolin-6-yl)pyridin-3-yl)-N-cyclopropyl-N-methylbenzenesulfonamide], the IC50 is less than 0.15 µM under setting [1] and less than 0.05 µM under setting [2].

With `NC(=O)c1ccc(-c2cc(-c3cn[nH]c3)cnc2N)cc1` [4-(2-amino-5-(1H-pyrazol-4-yl)pyridin-3yl)benzamide], under setting [2], the concentration for half-maximal inhibition (IC50) was less than 0.15 µM.

On to `CN(C1CC1)S(=O)(=O)c1ccc(-c2cnc(N)c(-c3ccc4c(c3)C(C)(C)CNC4=O)n2)cc1` [4-(5-amino-6-(4,4-dimethyl-1-oxo-1,2,3,4-tetrahydroisoquinolin-6-yl)pyrazin-2-yl)-N-cyclopropyl-N-methylbenzenesulfonamide], for which the 50% inhibitory concentration (IC50) is, setting by setting: under setting [1], less than 0.01 µM; under setting [2], less than 0.01 µM.
